# Legend:
# human PLK1 kinase domain = target: T1, human PLK1 kinase domain (Homo sapiens, UniProt P53350); assay: In vitro PLK1 assay (IMAP fluorescence polarization kinase assay); type: biochemical; settings: for inhibition at 10 µM: at 10 uM compound; for IC50: 30 nM PLK1 kinase domain, 16 μM ATP (=Kmapp), 90 min at room temperature
# T1 construct: Each reaction consisted of 30 nM enzyme PLK1 kinase domain
# Description: The activity of the compounds described in the present invention was determined using a commercially available IMAP Screening Express Assay Kit (Molecular devices).
# This method measures the change in the fluorescent polarization of a fluorescently-labeled peptide due to the effect of human PLK1 kinase domain on it. PLK1 kinase assays were performed in low protein binding 384-well plates (Corning 3676). Test compounds were diluted in 100% DMSO to 5 mM stock concentration, the further dilutions were made in H2O or 100% DMSO to desirable concentrations.
# Each reaction consisted of 30 nM enzyme PLK1 kinase domain, 400 nM 5TAMRA-RGSFNDTLDFD-NH2 (Genecust Europe), 16 μM ATP (=Kmapp, Sigma-Aldrich) and kinase buffer: 20 mM HEPES pH 7.5 (Sigma-Aldrich), 1 mM DTT (Sigma-Aldrich), 10 mM MgCl2 (Sigma-Aldrich), 0.01% Triton X-100 (Sigma-Aldrich).
# For each reaction, 4 or 6 μl containing 5TAMRA-RGSFNDTLDFD-NH2, ATP and kinase buffer were combined with 2 μl diluted compound in H2O or 0.04 μl compound in 100% DMSO. The kinase reaction was started by the addition of 2 μl diluted enzyme. The reaction was allowed to run for 90 minutes at room temperature. The reaction was stopped by adding 15 μl IMAP beads (1:1200 beads in progressive (40% buffer A, 60% buffer B) 1× buffer). After an additional 60 minutes, fluorescent polarization (Ex: 550-10 nm, Em: 590-10 nm, Dich: 561 nm) was measured using Analyst GT multimode reader (Molecular Devices).
# M. tuberculosis H37Rv = assay: Resazurin reduction microtiter assay (REMA), growth inhibition and MIC determination; type: cell-based; settings: Mycobacterium tuberculosis, 168 h, 7 days at 37° C.; for inhibition at 20 µM: at 20 uM compound, read-out: H37Rv inh % at 20 uM; for MIC: two-fold serial dilution from 100 to 0.16 μM, read-out: H37Rv MIC90
# T1 sequence (P53350 53-305 limits assumed): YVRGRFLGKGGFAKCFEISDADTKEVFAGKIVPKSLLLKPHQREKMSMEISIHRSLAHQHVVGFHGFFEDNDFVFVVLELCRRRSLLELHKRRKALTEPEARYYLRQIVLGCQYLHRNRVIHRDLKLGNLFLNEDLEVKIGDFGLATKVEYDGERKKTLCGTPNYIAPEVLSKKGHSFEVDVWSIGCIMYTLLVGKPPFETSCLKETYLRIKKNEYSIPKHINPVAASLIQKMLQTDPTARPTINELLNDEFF
SMILES,HepG2 TD50 (HepG2),inhibition at 10 µM (human PLK1 kinase domain) [%],inhibition at 20 µM (M. tuberculosis H37Rv) [%],MIC (M. tuberculosis H37Rv) [µM],IC50 (human PLK1 kinase domain) [µM]
"COc1ccc(C(C)(C)C)cc1-c1cc(Nc2ccc(S(=O)(=O)Nc3onc(C)c3C)cc2)ncn1 [Example 6, 4-[6-(5-tert-Butyl-2-methoxy-phenyl)-pyrimidin-4-ylamino]-N-(3,4-dimethyl-isoxazol-5-yl)-benzenesulfonamide]",19.6,26.1,94.1,19.6,
"COc1ccc(C)cc1-c1cc(Nc2ccc(S(=O)(=O)Nc3onc(C)c3C)cc2)ncn1 [Example 9, N-(3,4-Dimethyl-isoxazol-5-yl)-4-[6-(2-methoxy-5-methyl-phenyl)-pyrimidin-4-ylamino]-benzenesulfonamide]",19.6,67.6,101,19.3,0.807
"COc1cccc(F)c1-c1cc(Nc2ccc(S(=O)(=O)Nc3onc(C)c3C)cc2)ncn1 [Example 12, N-(3,4-Dimethyl-isoxazol-5-yl)-4-[6-(2-fluoro-6-methoxy-phenyl)-pyrimidin-4-ylamino]-benzenesulfonamide]",19.6,83.3,102,1.13,1.46
"COc1cccc(Cl)c1-c1cc(Nc2ccc(S(=O)(=O)Nc3onc(C)c3C)cc2)ncn1 [Example 15, 4-[6-(2-Chloro-6-methoxy-phenyl)-pyrimidin-4-ylamino]-N-(3,4-dimethyl-isoxazol-5-yl)-benzenesulfonamide]",0.0458,96.4,102,0.292,
"Cc1noc(NS(=O)(=O)c2ccc(Nc3cc(-c4cc(Cl)ccc4Cl)ncn3)cc2)c1C [Example 16, 4-[6-(2,5-Dichloro-phenyl)-pyrimidin-4-ylamino]-N-(3,4-dimethyl-isoxazol-5-yl)-benzenesulfonamide]",2.37,7.9,100,11.8,0.604
"COc1cccc(OC)c1-c1cc(Nc2ccc(S(=O)(=O)Nc3onc(C)c3C)cc2)ncn1 [Example 22, 4-[6-(2,6-Dimethoxy-phenyl)-pyrimidin-4-ylamino]-N-(3,4-dimethyl-isoxazol-5-yl)-benzenesulfonamide]",9.819,10.1,102,7.24,
"Cc1noc(NS(=O)(=O)c2ccc(Nc3cc(-c4ccccc4C(N)=O)ncn3)cc2)c1C [Example 26, 2-{6-[4-(3,4-Dimethyl-isoxazol-5-ylsulfamoyl)-phenylamino]-pyrimidin-4-yl}-benzamide]",,0,-34.2,,
"CC(=O)Nc1ccc(-c2cc(Nc3ccc(S(=O)(=O)Nc4onc(C)c4C)cc3)ncn2)cc1 [Example 27, N-(4-{6-[4-(3,4-Dimethyl-isoxazol-5-ylsulfamoyl)-phenylamino]-pyrimidin-4-yl}-phenyl)-acetamide]",,68.7,-11.9,,0.372
"COc1cc(Cl)ccc1-c1cc(Nc2ccc(S(=O)(=O)Nc3onc(C)c3C)cc2)ncn1 [Example 28, 4-[6-(4-Chloro-2-methoxy-phenyl)-pyrimidin-4-ylamino]-N-(3,4-dimethyl-isoxazol-5-yl)-benzenesulfonamide]",,61.9,0.6,,0.059
"COc1ccc(COc2ccccc2-c2cc(Nc3ccc(S(=O)(=O)Nc4onc(C)c4C)cc3)ncn2)cc1 [Example 29, N-(3,4-Dimethyl-isoxazol-5-yl)-4-{6-[2-(4-methoxy-benzyloxy)-phenyl]-pyrimidin-4-ylamino}-benzenesulfonamide]",,36,-14.2,,
"COc1ccccc1-c1cc(Nc2ccc(S(=O)(=O)Nc3nnc(C)s3)cc2)ncn1 [Example 32, 4-[6-(2-Methoxy-phenyl)-pyrimidin-4-ylamino]-N-(5-methyl-[1,3,4]thiadiazol-2-yl)-benzenesulfonamide]",,63.5,100,18.5,0.917
"COc1ccccc1-c1cc(Nc2ccc(S(=O)(=O)Nc3cc(C)on3)cc2)ncn1 [Example 33, 4-[6-(2-Methoxy-phenyl)-pyrimidin-4-ylamino]-N-(5-methyl-isoxazol-3-yl)-benzenesulfonamide]",,57.8,-30.6,,
"Cc1noc(NS(=O)(=O)c2ccc(Nc3cc(-c4cccc(C#N)c4)ncn3)cc2)c1C [Example 34, 4-[6-(3-Cyano-phenyl)-pyrimidin-4-ylamino]-N-(3,4-dimethyl-isoxazol-5-yl)-benzenesulfonamide]",,58.5,-4.3,,
"COc1cccc(-c2cc(Nc3ccc(S(=O)(=O)Nc4onc(C)c4C)cc3)ncn2)c1 [Example 35, N-(3,4-Dimethyl-isoxazol-5-yl)-4-[6-(3-methoxy-phenyl)-pyrimidin-4-ylamino]-benzenesulfonamide]",,77.1,-8.1,,2.49
"COc1cccc(-c2cc(Nc3ccc(S(=O)(=O)Nc4onc(C)c4C)cc3)ncn2)c1OC [Example 36, 4-[6-(2,3-Dimethoxy-phenyl)-pyrimidin-4-ylamino]-N-(3,4-dimethyl-isoxazol-5-yl)-benzenesulfonamide]",,77.3,-9.8,,2.18
"COc1ccc(-c2cc(Nc3ccc(S(=O)(=O)Nc4onc(C)c4C)cc3)ncn2)c(OC)c1 [Example 37, 4-[6-(2,4-Dimethoxy-phenyl)-pyrimidin-4-ylamino]-N-(3,4-dimethyl-isoxazol-5-yl)-benzenesulfonamide]",16.1,70,101,13.7,0.947
"COc1ccc(F)cc1-c1cc(Nc2ccc(S(=O)(=O)Nc3onc(C)c3C)cc2)ncn1 [Example 38, N-(3,4-Dimethyl-isoxazol-5-yl)-4-[6-(5-fluoro-2-methoxy-phenyl)-pyrimidin-4-ylamino]-benzenesulfonamide]",,80.8,96.4,19.6,3.19
"Cc1noc(NS(=O)(=O)c2ccc(Nc3cc(-c4ccccc4)ncn3)cc2)c1C [Example 39, N-(3,4-Dimethyl-isoxazol-5-yl)-4-(6-phenyl-pyrimidin-4-ylamino)-benzenesulfonamide]",,57.9,-22.2,,
"Cc1noc(NS(=O)(=O)c2ccc(Nc3cc(-c4ccccc4F)ncn3)cc2)c1C [Example 40, N-(3,4-Dimethyl-isoxazol-5-yl)-4-[6-(2-fluoro-phenyl)-pyrimidin-4-ylamino]-benzenesulfonamide]",,88.6,-8.5,,2.43
"COc1ccccc1-c1cc(Nc2ccc(S(=O)(=O)NC(=O)C(C)C(C)=O)cc2)ncn1 (stereo not drawn) [Example 41, 4-[6-(2-Methoxy-phenyl)-pyrimidin-4-ylamino]-N-(2-methyl-3-oxo-butyryl)-benzenesulfonamide]",,59,-4.8,,
"Cc1noc(NS(=O)(=O)c2ccc(Nc3cc(-c4cccc(C(F)(F)F)c4)ncn3)cc2)c1C [Example 42, N-(3,4-Dimethyl-isoxazol-5-yl)-4-[6-(3-trifluoromethyl-phenyl)-pyrimidin-4-ylamino]-benzenesulfonamide]",,17,24.2,,
"Cc1noc(NS(=O)(=O)c2ccc(Nc3cc(-c4cccc5ccccc45)ncn3)cc2)c1C [Example 43, N-(3,4-Dimethyl-isoxazol-5-yl)-4-(6-naphthalen-1-yl-pyrimidin-4-ylamino)-benzenesulfonamide]",,58.8,-9.2,,13.8

# — patent US20150368209A1, “4-Pyrimidinylamino-benzenesulfonamide derivatives and their use for the inhibition of polo-like kinase 1 (PLK1) for the treatment of cancer and their use for the treatment of bacterial infections” (VICHEM CHEMIE KUTATÓ KFT., priority 2013, published 2015)
